{"source": "ChEMBL document CHEMBL4825690", "about": "“Synthesis and biological evaluation of chalcone-polyamine conjugates as novel vectorized agents in colorectal and prostate cancer chemotherapy” (Eur J Med Chem, 2021)", "key": {"[1]": {"system": "PC-3", "assay": "Induction of apoptosis in human PC-3 cells assessed as late apoptotic cells incubated for 48 hrs by annexin-V/FITC and propidium iodide staining based flow cytometry analysis (reference value: 2.13 %)", "format": "functional"}, "[2]": {"system": "HCT-116", "assay": "Induction of cell cycle arrest in human HCT-116 cells assessed as reduction in CDK2 expression by Western blot analysis", "format": "functional, cell-based"}, "[3]": {"system": "HCT-116", "assay": "Induction of apoptosis in human HCT-116 cells assessed as necrotic cells incubated for 48 hrs by annexin-V/FITC and propidium iodide staining based flow cytometry analysis (reference value: 7.22 %)", "format": "functional"}, "[4]": {"system": "HT-29", "assay": "Induction of cell cycle arrest at G1 phase in human HT-29 cells assessed as reduction in CDK2 expression by Western blot analysis", "format": "functional, cell-based"}, "[5]": {"system": "HT-29", "assay": "Induction of cell cycle arrest at G1 phase in human HT-29 cells assessed as reduction in CDK4 expression by Western blot analysis", "format": "functional, cell-based"}, "[6]": {"system": "HCT-116", "assay": "Induction of apoptosis in human HCT-116 cells assessed as increase in cleaved PARP protein expression by Western blot assay", "format": "functional, cell-based"}, "[7]": {"system": "PC-3", "assay": "Antiproliferative activity against human PC3 cells assessed as reduction in cell viability incubated for 48 hr by MTT assay", "format": "functional, cell-based", "settings": "PC-3, 48 h"}, "[8]": {"system": "HCT-116", "assay": "Induction of apoptosis in human HCT-116 cells assessed as late apoptotic cells incubated for 48 hrs by annexin-V/FITC and propidium iodide staining based flow cytometry analysis (reference value: 7.22 %)", "format": "functional"}, "[9]": {"system": "HT-29", "assay": "Induction of apoptosis in human HT-29 cells assessed as decrease in pro-caspase-3 expression by Western blot assay", "format": "functional, cell-based"}, "[10]": {"system": "HCT-116", "assay": "Induction of apoptosis in human HCT-116 cells assessed as viable cells incubated for 48 hrs by annexin-V/FITC and propidium iodide staining based flow cytometry analysis (reference value: […] %)", "format": "functional"}, "[11]": {"system": "PC-3", "assay": "Induction of cell cycle arrest in human PC-3 cells assessed as increase in p21 expression by Western blot analysis", "format": "functional, cell-based"}, "[12]": {"system": "DU-145", "assay": "Induction of apoptosis in human DU-145 cells assessed as increase in caspase-3 level by Western blot assay", "format": "functional, cell-based"}, "[13]": {"system": "DU-145", "assay": "Induction of apoptosis in human DU-145 cells assessed as increase in cleaved PARP protein expression by Western blot assay", "format": "functional, cell-based"}, "[14]": {"target": "Tubulin (Homo sapiens) (UniProt P68371+Q9H4B7+P0DPH7+P68366+Q13509+Q71U36+P04350+Q3ZCM7+P07437+P68363+Q9BQE3+Q6PEY2+Q13885+Q9BVA1+Q9BUF5)", "assay": "Inhibition of tubulin polymerization in human HeLa cells measured after 2 hrs by fluorescent immunostaining method", "format": "cell-based"}, "[15]": {"system": "DU-145", "assay": "Induction of apoptosis in human DU-145 cells assessed as necrotic cells incubated for 48 hrs by annexin-V/FITC and propidium iodide staining based flow cytometry analysis (reference value: 0.04 %)", "format": "functional"}, "[16]": {"system": "HCT-116", "assay": "Induction of cell cycle arrest in human HCT-116 cells assessed as increase in p21 expression by Western blot analysis", "format": "functional, cell-based"}, "[17]": {"system": "DU-145", "assay": "Induction of apoptosis in human DU-145 cells assessed as early apoptotic cells incubated for 48 hrs by annexin-V/FITC and propidium iodide staining based flow cytometry analysis (reference value: 3.27 %)", "format": "functional"}, "[18]": {"system": "DU-145", "assay": "Induction of apoptosis in human DU-145 cells assessed as decrease in pro-caspase-3 expression by Western blot assay", "format": "functional, cell-based"}, "[19]": {"system": "HCT-116", "assay": "Induction of apoptosis in human HCT-116 cells assessed as early apoptotic cells incubated for 48 hrs by annexin-V/FITC and propidium iodide staining based flow cytometry analysis (reference value: 5.21 %)", "format": "functional"}, "[20]": {"system": "HT-29", "assay": "Induction of apoptosis in human HT-29 cells assessed as increase in DNA fragmentation after 48 hrs by ELISA relative to control", "format": "functional"}, "[21]": {"system": "HT-29", "assay": "Induction of cell cycle arrest at G1 phase in human HT-29 cells assessed as reduction in Cyclin D1 expression by Western blot analysis", "format": "functional, cell-based"}, "[22]": {"system": "PC-3", "assay": "Induction of cell cycle arrest in human PC3 cells assessed as accumulation at G1 phase at IC50 incubated for 48 hrs by RNaeA/propidium iodide based flow cytometry analysis (reference value: 42.61 %)", "format": "functional"}, "[23]": {"system": "DU-145", "assay": "Induction of cell cycle arrest in human DU-145 cells assessed as accumulation at S phase at IC50 incubated for 48 hrs by RNaeA/propidium iodide based flow cytometry analysis (reference value: 38.44 %)", "format": "functional"}, "[24]": {"system": "HCT-116", "assay": "Induction of cell cycle arrest in human HCT-116 cells assessed as accumulation at S phase at IC50 incubated for 48 hrs by RNaeA/propidium iodide based flow cytometry analysis (reference value: 30.68 %)", "format": "functional"}, "[25]": {"system": "HCT-116", "assay": "Induction of apoptosis in human HCT-116 cells assessed as increase in caspase-3 level by Western blot assay", "format": "functional, cell-based"}, "[26]": {"system": "PC-3", "assay": "Induction of cell cycle arrest in human PC-3 cells assessed as decrease in cyclin B1 expression by Western blot analysis", "format": "functional, cell-based"}, "[27]": {"system": "HT-29", "assay": "Induction of apoptosis in human HT-29 cells assessed as early apoptotic cells incubated for 48 hrs by annexin-V/FITC and propidium iodide staining based flow cytometry analysis (reference value: 3.37%)", "format": "functional"}, "[28]": {"system": "PC-3", "assay": "Induction of cell cycle arrest in human PC-3 cells assessed as decrease in cyclin A2 expression by Western blot analysis", "format": "functional, cell-based"}, "[29]": {"system": "HCT-116", "assay": "Induction of apoptosis in human HCT-116 cells assessed as increase in DNA fragmentation after 48 hrs by ELISA relative to control", "format": "functional"}, "[30]": {"system": "PC-3", "assay": "Induction of apoptosis in human PC-3 cells assessed as necrotic cells incubated for 48 hrs by annexin-V/FITC and propidium iodide staining based flow cytometry analysis (reference value: 0.54 %)", "format": "functional"}, "[31]": {"system": "PC-3", "assay": "Induction of apoptosis in human PC-3 cells assessed as early apoptotic cells incubated for 48 hrs by annexin-V/FITC and propidium iodide staining based flow cytometry analysis (reference value: 4.38 %)", "format": "functional"}, "[32]": {"system": "DU-145", "assay": "Induction of cell cycle arrest in human DU-145 cells assessed as increase in p21 expression by Western blot analysis", "format": "functional, cell-based"}, "[33]": {"system": "HT-29", "assay": "Antiproliferative activity against human HT29 cells assessed as reduction in cell viability incubated for 48 hr by MTT assay", "format": "functional, cell-based", "settings": "HT-29, 48 h"}, "[34]": {"system": "HT-29", "assay": "Induction of apoptosis in human HT-29 cells assessed as increase in cleaved PARP protein expression by Western blot assay", "format": "functional, cell-based"}, "[35]": {"system": "DU-145", "assay": "Induction of cell cycle arrest in human DU-145 cells assessed as effect on cyclin A2 expression by Western blot analysis", "format": "functional, cell-based"}}, "note": "Active and inactive are the calls of the source. The calls are words filed in the database; no cut-off is given here."}
{"smiles": "COc1cc(C(=O)/C=C/c2ccc(OCCCNCCCNCCCCN)cc2)cc(OC)c1OC", "values": [{"measurement": "Activity", "setting": "[1]", "value": 12.65, "unit": "%"}, {"measurement": "Activity", "setting": "[2]", "value": "Active"}, {"measurement": "Activity", "setting": "[3]", "value": 3.35, "unit": "%"}, {"measurement": "Activity", "setting": "[4]", "value": "Active"}, {"measurement": "Activity", "setting": "[5]", "value": "Active"}, {"measurement": "Activity", "setting": "[6]", "value": "Active"}, {"measurement": "IC50", "setting": "[7]", "value": 13.7, "unit": "µM"}, {"measurement": "Activity", "setting": "[8]", "value": 21.6, "unit": "%"}, {"measurement": "Activity", "setting": "[9]", "value": "Active"}, {"measurement": "Activity", "setting": "[10]", "value": 52.13, "unit": "%"}, {"measurement": "Activity", "setting": "[11]", "value": "Active"}, {"measurement": "Activity", "setting": "[12]", "value": "Active"}, {"measurement": "Activity", "setting": "[13]", "value": "Active"}, {"measurement": "inhibition", "setting": "[14]", "value": "inactive"}, {"measurement": "Activity", "setting": "[15]", "value": 0.05, "unit": "%"}, {"measurement": "Activity", "setting": "[16]", "value": "Active"}, {"measurement": "Activity", "setting": "[17]", "value": 52.25, "unit": "%"}, {"measurement": "Activity", "setting": "[18]", "value": "Active"}, {"measurement": "Activity", "setting": "[19]", "value": 22.92, "unit": "%"}, {"measurement": "fold change (FC)", "setting": "[20]", "value": 2.07}, {"measurement": "Activity", "setting": "[21]", "value": "Active"}, {"measurement": "Activity", "setting": "[22]", "value": 19.12, "unit": "%"}, {"measurement": "Activity", "setting": "[23]", "value": 37.34, "unit": "%"}, {"measurement": "Activity", "setting": "[24]", "value": 14.4, "unit": "%"}, {"measurement": "Activity", "setting": "[25]", "value": "Active"}, {"measurement": "Activity", "setting": "[26]", "value": "Active"}, {"measurement": "Activity", "setting": "[27]", "value": 11.04, "unit": "%"}, {"measurement": "Activity", "setting": "[28]", "value": "Active"}, {"measurement": "fold change (FC)", "setting": "[29]", "value": 4.72}, {"measurement": "Activity", "setting": "[30]", "value": 2.63, "unit": "%"}, {"measurement": "Activity", "setting": "[31]", "value": 34.25, "unit": "%"}, {"measurement": "Activity", "setting": "[32]", "value": "Active"}, {"measurement": "IC50", "setting": "[33]", "value": 10.8, "unit": "µM"}, {"measurement": "Activity", "setting": "[34]", "value": "Active"}, {"measurement": "Activity", "setting": "[35]", "value": "inactive"}]}
